Measurements as given in ChEMBL document CHEMBL1201862, “PubChem BioAssay data set” (2004).
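Following 48 hours of exposure in 96-well plates, responses at five concentrations were used to interpolate endpoints linearly. GI50 = concentration required for 50% inhibition of growth.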 Calls of active or inactive are those of the source. No stated cut-off is given here; in the data, active = GI50 up to about 1.1 µM and inactive = higher.

How the values were obtained:
Test in all cases: NCI anticancer screen, dose series, 48 h
[1] = system: 786-0
[2] = system: A498
[3] = system: A549
[4] = system: ACHN
[5] = system: BT-549
[6] = system: CAKI-1
[7] = system: CCRF-CEM
[8] = system: COLO 205
[9] = system: DLD-1
[10] = system: DMS-114
[11] = system: DMS-273
[12] = system: DU-145
[13] = system: EKVX
[14] = system: HCC 2998
[15] = system: HCT-116
[16] = system: HCT-15
[17] = system: HL-60
[18] = system: HOP-62
[19] = system: HOP-92
[20] = system: HT-29
[21] = system: Hs-578T
[22] = system: IGROV-1
[23] = system: K562
[24] = system: KM-20L2
[25] = system: KM12
[26] = system: LOX IMVI
[27] = system: LXFL 529
[28] = system: M14
[29] = system: M19-MEL
[30] = system: MCF7
[31] = system: MDA-MB-231
[32] = system: MDA-MB-435
[33] = system: MDA-N
[34] = system: MOLT-4
[35] = system: Malme-3M
[36] = system: NCI-H226
[37] = system: NCI-H23
[38] = system: NCI-H460
[39] = system: NCI-H522
[40] = system: NCI/ADR-RES
[41] = system: OVCAR-3
[42] = system: OVCAR-4
[43] = system: OVCAR-5
[44] = system: OVCAR-8
[45] = system: PC-3
[46] = system: RPMI-8226
[47] = system: RXF 393
[48] = system: RXF 631
[49] = system: SF-268
[50] = system: SF-295
[51] = system: SF-539
[52] = system: SK-MEL-28
[53] = system: SK-MEL-2
[54] = system: SK-MEL-5
[55] = system: SK-OV-3
[56] = system: SN12C
[57] = system: SNB-19
[58] = system: SNB-75
[59] = system: SR
[60] = system: SW-620
[61] = system: T47D
[62] = system: TK-10
[63] = system: U-251
[64] = system: UACC-257
[65] = system: UACC-62
[66] = system: UO-31
[67] = system: XF498
[68] = system: SNB-78

For CC(C)c1ccc(C2NC(S)=NC3=C2c2ccccc2C3=O)cc1 (stereo not given), which GI50 [1] is on record?
Its GI50 is 22.5 µM (inactive).

What about the GI50 [2] of the same compound?
Its GI50 is 36.7 µM (inactive).

And the GI50 [3]?
The GI50 was 28.6 µM (inactive).

What about the GI50 [4] of the same compound?
Its GI50 is 27.7 µM (inactive).

What about the GI50 [5] of the same compound?
Its GI50 is 17.1 µM (inactive).

And the GI50 [6]?
Its GI50 is 22.8 µM (inactive).

And the GI50 [7]?
Its GI50 is 26.5 µM (inactive).

And the GI50 [8]?
The GI50 was 26.4 µM (inactive).

And the GI50 [9]?
The GI50 was 48.5 µM (inactive).

And the GI50 [10]?
The GI50 was 21.3 µM (inactive).

And the GI50 [11]?
Its GI50 is 30 µM (inactive).

What about the GI50 [12] of the same compound?
Its GI50 is 16.7 µM (inactive).

What about the GI50 [13] of the same compound?
Its GI50 is 33.4 µM (inactive).

And the GI50 [14]?
Its GI50 is > 36.6 µM (inactive).

What about the GI50 [15] of the same compound?
Its GI50 is 23.6 µM (inactive).

And the GI50 [16]?
Its GI50 is 20.6 µM.

And the GI50 [17]?
Its GI50 is 8.75 µM (inactive).

What about the GI50 [18] of the same compound?
The GI50 was 25.8 µM (inactive).

What about the GI50 [19] of the same compound?
Its GI50 is 22.3 µM (inactive).

What about the GI50 [20] of the same compound?
Its GI50 is 25.5 µM (inactive).

And the GI50 [21]?
Its GI50 is 14.8 µM (inactive).

What about the GI50 [22] of the same compound?
The GI50 was 27 µM (inactive).

What about the GI50 [23] of the same compound?
Its GI50 is 22.6 µM (inactive).

What about the GI50 [24] of the same compound?
Its GI50 is 25.6 µM (inactive).

And the GI50 [25]?
The GI50 was 27.4 µM (inactive).

What about the GI50 [26] of the same compound?
The GI50 was 20.6 µM (inactive).

What about the GI50 [27] of the same compound?
Its GI50 is 38.3 µM (inactive).

What about the GI50 [28] of the same compound?
Its GI50 is 28 µM (inactive).

What about the GI50 [29] of the same compound?
The GI50 was 38.9 µM (inactive).

And the GI50 [30]?
The GI50 was 10.2 µM (inactive).

And the GI50 [31]?
Its GI50 is 16.9 µM (inactive).

What about the GI50 [32] of the same compound?
The GI50 was 6.97 µM (inactive).

What about the GI50 [33] of the same compound?
The GI50 was 5.31 µM (inactive).

What about the GI50 [34] of the same compound?
The GI50 was 24.4 µM (inactive).

And the GI50 [35]?
Its GI50 is 26.2 µM (inactive).

What about the GI50 [36] of the same compound?
Its GI50 is 34.4 µM (inactive).

What about the GI50 [37] of the same compound?
Its GI50 is 23.6 µM (inactive).

And the GI50 [38]?
Its GI50 is 29.2 µM (inactive).

What about the GI50 [39] of the same compound?
Its GI50 is 17.3 µM (inactive).

What about the GI50 [40] of the same compound?
Its GI50 is 15.1 µM (inactive).

What about the GI50 [41] of the same compound?
Its GI50 is 26.2 µM (inactive).

What about the GI50 [42] of the same compound?
Its GI50 is 21.6 µM (inactive).

What about the GI50 [43] of the same compound?
Its GI50 is 34 µM (inactive).

What about the GI50 [44] of the same compound?
Its GI50 is 32.1 µM (inactive).

What about the GI50 [45] of the same compound?
Its GI50 is 11.3 µM (inactive).

What about the GI50 [46] of the same compound?
Its GI50 is 23.2 µM (inactive).

And the GI50 [47]?
Its GI50 is 10.3 µM (inactive).

What about the GI50 [48] of the same compound?
The GI50 was 54 µM (inactive).

And the GI50 [49]?
The GI50 was 19.9 µM (inactive).

And the GI50 [50]?
The GI50 was 20.5 µM (inactive).

And the GI50 [51]?
The GI50 was 18.7 µM (inactive).

And the GI50 [52]?
The GI50 was 21.1 µM (inactive).

And the GI50 [53]?
The GI50 was 17.4 µM (inactive).

And the GI50 [54]?
Its GI50 is 20.1 µM (inactive).

And the GI50 [55]?
The GI50 was 25.4 µM (inactive).

What about the GI50 [56] of the same compound?
The GI50 was 24.7 µM (inactive).

And the GI50 [57]?
Its GI50 is 23.8 µM (inactive).

What about the GI50 [58] of the same compound?
The GI50 was 15.7 µM (inactive).

And the GI50 [59]?
The GI50 was 8.95 µM (inactive).

What about the GI50 [60] of the same compound?
Its GI50 is 23.4 µM (inactive).

What about the GI50 [61] of the same compound?
Its GI50 is 18.2 µM (inactive).

And the GI50 [62]?
Its GI50 is 34 µM (inactive).

What about the GI50 [63] of the same compound?
The GI50 was 26.7 µM (inactive).

What about the GI50 [64] of the same compound?
Its GI50 is > 41.4 µM (inactive).

And the GI50 [65]?
The GI50 was 12 µM (inactive).

And the GI50 [66]?
The GI50 was 21.5 µM (inactive).

And the GI50 [67]?
The GI50 was 32.4 µM (inactive).

Which results are given for N#CC(/C(=N\NC(=O)c1ccncc1)C(=O)Nc1ccc([N+](=O)[O-])cc1[N+](=O)[O-])c1nc(-c2ccc(Br)cc2)cs1 (stereo not given)?
GI50 [1]: > 100 µM (inactive); GI50 [2]: > 100 µM (inactive); GI50 [3]: > 100 µM (inactive); GI50 [4]: > 100 µM (inactive); GI50 [6]: > 100 µM (inactive); GI50 [7]: > 100 µM (inactive); GI50 [8]: > 100 µM (inactive); GI50 [9]: > 100 µM (inactive); GI50 [10]: > 100 µM (inactive); GI50 [13]: > 100 µM (inactive); GI50 [14]: > 100 µM (inactive); GI50 [15]: > 100 µM (inactive); GI50 [16]: > 100 µM; GI50 [17]: > 100 µM (inactive); GI50 [18]: > 100 µM (inactive); GI50 [22]: > 100 µM (inactive); GI50 [23]: > 100 µM (inactive); GI50 [24]: > 100 µM (inactive); GI50 [25]: > 100 µM (inactive); GI50 [26]: > 100 µM (inactive); GI50 [27]: > 100 µM (inactive); GI50 [28]: > 100 µM (inactive); GI50 [29]: > 100 µM (inactive); GI50 [34]: > 100 µM (inactive); GI50 [35]: > 100 µM (inactive); GI50 [38]: > 100 µM (inactive); GI50 [41]: > 100 µM (inactive); GI50 [42]: > 100 µM (inactive); GI50 [43]: > 100 µM (inactive); GI50 [44]: > 100 µM (inactive); GI50 [46]: > 100 µM (inactive); GI50 [48]: > 100 µM (inactive); GI50 [49]: > 100 µM (inactive); GI50 [50]: > 100 µM (inactive); GI50 [51]: > 100 µM (inactive); GI50 [52]: > 100 µM (inactive); GI50 [53]: > 100 µM (inactive); GI50 [54]: > 100 µM (inactive); GI50 [55]: > 100 µM (inactive); GI50 [57]: > 100 µM (inactive); GI50 [58]: > 100 µM (inactive); GI50 [68]: > 100 µM (inactive); GI50 [60]: > 100 µM (inactive); GI50 [62]: > 100 µM (inactive); GI50 [63]: > 100 µM (inactive); GI50 [64]: > 100 µM (inactive); GI50 [65]: > 100 µM (inactive); GI50 [66]: > 100 µM (inactive)
